Reference: patent publication US10668067B2, “Pyridine sulfonamides” (AMGEN INC., priority 2016, dated 2020)

Biological target: human Nav1.7 (Homo sapiens (Human), UniProt Q15858)
Test: Nav 1.7 In Vitro PX Assay (PatchXpress whole cell voltage clamp)
Assay type: cell-based
Details: in-vitro Nav 1.7 PX data
Outline: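 Partially inactivated channels (20–50% inactivation at holding potential) probed by 20 ms pulses to −10 mV repeated at 0.1 Hz, in stable human Nav1.7 HEK293 cells.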

human Nav1.7, sequence (Q15858 whole entry): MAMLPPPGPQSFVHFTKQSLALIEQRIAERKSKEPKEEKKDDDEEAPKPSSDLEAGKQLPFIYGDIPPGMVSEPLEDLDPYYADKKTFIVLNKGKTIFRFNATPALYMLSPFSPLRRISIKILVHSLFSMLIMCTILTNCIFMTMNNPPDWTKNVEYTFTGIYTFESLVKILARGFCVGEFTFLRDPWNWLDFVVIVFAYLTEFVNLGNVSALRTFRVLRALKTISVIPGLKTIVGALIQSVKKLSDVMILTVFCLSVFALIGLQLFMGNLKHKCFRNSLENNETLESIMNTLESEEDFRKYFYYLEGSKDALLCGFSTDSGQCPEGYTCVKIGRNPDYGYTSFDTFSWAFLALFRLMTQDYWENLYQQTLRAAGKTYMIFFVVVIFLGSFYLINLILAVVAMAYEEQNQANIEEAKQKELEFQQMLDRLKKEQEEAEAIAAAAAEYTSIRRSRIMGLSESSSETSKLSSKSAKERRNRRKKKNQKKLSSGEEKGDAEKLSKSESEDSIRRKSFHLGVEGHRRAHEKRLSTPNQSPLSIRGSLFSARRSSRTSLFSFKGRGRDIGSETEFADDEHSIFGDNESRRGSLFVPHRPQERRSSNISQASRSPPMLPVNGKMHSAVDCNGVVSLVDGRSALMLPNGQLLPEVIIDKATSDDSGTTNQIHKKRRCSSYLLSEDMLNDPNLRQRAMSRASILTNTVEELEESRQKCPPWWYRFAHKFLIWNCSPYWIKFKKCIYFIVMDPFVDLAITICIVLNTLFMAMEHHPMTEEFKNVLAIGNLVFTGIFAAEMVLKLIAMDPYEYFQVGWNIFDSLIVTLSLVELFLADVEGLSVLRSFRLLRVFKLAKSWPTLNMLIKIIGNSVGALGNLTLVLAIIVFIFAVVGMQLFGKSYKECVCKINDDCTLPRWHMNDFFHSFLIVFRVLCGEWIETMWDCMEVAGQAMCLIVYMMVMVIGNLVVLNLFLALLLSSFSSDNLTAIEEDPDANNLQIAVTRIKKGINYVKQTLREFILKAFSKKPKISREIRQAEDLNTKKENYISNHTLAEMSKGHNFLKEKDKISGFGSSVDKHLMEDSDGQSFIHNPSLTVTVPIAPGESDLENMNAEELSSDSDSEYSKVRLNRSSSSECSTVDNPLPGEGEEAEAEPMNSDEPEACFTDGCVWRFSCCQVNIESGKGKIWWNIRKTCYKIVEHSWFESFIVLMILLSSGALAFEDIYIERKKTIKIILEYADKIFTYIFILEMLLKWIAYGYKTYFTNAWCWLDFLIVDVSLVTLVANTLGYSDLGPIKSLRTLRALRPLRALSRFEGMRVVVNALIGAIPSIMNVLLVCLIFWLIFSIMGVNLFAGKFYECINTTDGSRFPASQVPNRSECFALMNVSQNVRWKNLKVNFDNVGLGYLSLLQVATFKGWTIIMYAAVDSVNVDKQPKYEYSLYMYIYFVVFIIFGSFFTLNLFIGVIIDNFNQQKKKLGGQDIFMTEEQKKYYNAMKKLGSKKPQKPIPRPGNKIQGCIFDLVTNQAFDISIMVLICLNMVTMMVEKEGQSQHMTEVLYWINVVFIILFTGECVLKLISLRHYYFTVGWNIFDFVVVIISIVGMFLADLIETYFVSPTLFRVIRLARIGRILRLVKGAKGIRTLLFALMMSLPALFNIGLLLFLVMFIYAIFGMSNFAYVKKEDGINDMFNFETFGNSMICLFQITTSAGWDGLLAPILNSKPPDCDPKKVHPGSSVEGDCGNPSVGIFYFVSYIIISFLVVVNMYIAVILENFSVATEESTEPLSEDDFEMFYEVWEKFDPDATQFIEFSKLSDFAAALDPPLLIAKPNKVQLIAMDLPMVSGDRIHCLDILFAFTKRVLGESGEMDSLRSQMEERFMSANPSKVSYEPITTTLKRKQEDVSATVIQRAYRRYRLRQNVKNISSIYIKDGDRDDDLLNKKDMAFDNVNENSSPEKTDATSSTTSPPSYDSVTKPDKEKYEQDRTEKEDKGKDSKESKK

Structure (SMILES)	IC50
CNC(=O)N(c1ccc(S(=O)(=O)Nc2ccon2)cn1)c1cc(Cl)c(-c2cc(OC)cc(C(F)(F)F)c2)cc1OC [Example 1-36, 6-((2-chloro-3′,5-dimethoxy-5′-(trifluoromethyl)-4-biphenylyl)(methylcarbamoyl)amino)-N-3-isoxazolyl-3-pyridinesulfonamide]	11 nM
CNC(=O)N(c1ccc(S(=O)(=O)Nc2ccon2)cn1)c1cc(F)c(-c2ccc(Cl)c(OC)c2)cc1OC [Example 1-35, 6-((4′-chloro-2-fluoro-3′,5-dimethoxy-4-biphenylyl)(methylcarbamoyl)amino)-N-3-isoxazolyl-3-pyridinesulfonamide]	185 nM
CNC(=O)N(c1ccc(S(=O)(=O)Nc2ncco2)cn1)c1cc(Cl)c(-c2ccc(F)c(OCC(F)(F)F)c2)cc1OC [Example 3-4, 6-((2-chloro-4′-fluoro-5-methoxy-3′-(2,2,2-trifluoroethoxy)-4-biphenylyl)(methylcarbamoyl)amino)-N-1,3-oxazol-2-yl-3-pyridinesulfonamide]	53 nM
CNC(=O)N(c1ccc(S(=O)(=O)Nc2cccnn2)cn1)c1cc(Cl)c(-c2cc(F)c(F)c(F)c2)cc1OC [Example 2-5, 6-((2-chloro-3′,4′,5′-trifluoro-5-methoxy-4-biphenylyl)(methylcarbamoyl)amino)-N-3-pyridazinyl-3-pyridinesulfonamide]	75 nM
CNC(=O)N(c1ccc(S(=O)(=O)Nc2ccon2)cn1)c1cc(F)c(-c2cc(OC)cc(OC(F)(F)F)c2)cc1OC [Example 1-7, 6-((2-fluoro-3′,5-dimethoxy-5′-(trifluoromethoxy)-4-biphenylyl)(methylcarbamoyl)amino)-N-3-isoxazolyl-3-pyridinesulfonamide]	18 nM
CNC(=O)N(c1ccc(S(=O)(=O)Nc2ccon2)cn1)c1cc(Cl)c(-c2cc(F)cc(C(F)(F)F)c2)cc1OC [Example 1-49, 6-((2-chloro-3′-fluoro-5-methoxy-5′-(trifluoromethyl)-4-biphenylyl)(methylcarbamoyl)amino)-N-3-isoxazolyl-3-pyridinesulfonamide]	28 nM
CNC(=O)N(c1ccc(S(=O)(=O)Nc2ccon2)cn1)c1cc(F)c(-c2cc(C)cc(Cl)c2)cc1OC [Example 1-19, 6-((3′-chloro-2-fluoro-5-methoxy-5′-methyl-4-biphenylyl)(methylcarbamoyl)amino)-N-3-isoxazolyl-3-pyridinesulfonamide]	47 nM
CNC(=O)N(c1ccc(S(=O)(=O)Nc2ccon2)cn1)c1cc(F)c(-c2ccc(F)c(C)c2)cc1OC [Example 1-16, 6-((2,4′-difluoro-5-methoxy-3′-methyl-4-biphenylyl)(methylcarbamoyl)amino)-N-3-isoxazolyl-3-pyridinesulfonamide]	61 nM
CNC(=O)N(c1ccc(S(=O)(=O)Nc2cccnn2)cn1)c1cc(F)c(-c2cccc(C(F)(F)F)c2)cc1OC [Example 1-3, 6-((2-fluoro-5-methoxy-3′-(trifluoromethyl)-4-biphenylyl)(methylcarbamoyl)amino)-N-3-pyridazinyl-3-pyridinesulfonamide]	40 nM
CNC(=O)N(c1ccc(S(=O)(=O)Nc2ccon2)cn1)c1cc(-c2cc(F)cc(Cl)c2)ccc1OC [Example 4-4, 6-((3′-chloro-5′-fluoro-4-methoxy-3-biphenylyl)(methylcarbamoyl)amino)-N-3-isoxazolyl-3-pyridinesulfonamide]	173 nM
CNC(=O)N(c1ccc(S(=O)(=O)Nc2ccon2)cn1)c1cc(F)c(-c2ccc(Cl)c(C(F)(F)F)c2)cc1OC [Example 1-11, 6-((4′-chloro-2-fluoro-5-methoxy-3′-(trifluoromethyl)-4-biphenylyl)(methylcarbamoyl)amino)-N-3-isoxazolyl-3-pyridinesulfonamide]	14 nM
CNC(=O)N(c1ccc(S(=O)(=O)Nc2ccon2)cn1)c1cc(Cl)c(-c2ccc(F)c(OC(F)(F)F)c2)cc1OC [Example 1-69, 6-((2-chloro-4′-fluoro-5-methoxy-3′-(trifluoromethoxy)-4-biphenylyl)(methylcarbamoyl)amino)-N-3-isoxazolyl-3-pyridinesulfonamide]	6 nM

The remaining lines, values ahead:

IC50	Structure (SMILES)
21 nM	CNC(=O)N(c1ccc(S(=O)(=O)Nc2ccon2)cn1)c1cc(Cl)c(-c2cccc(C3CC3)c2)cc1OC [Example 1-38, 6-((2-chloro-3′-cyclopropyl-5-methoxy-4-biphenylyl)(methylcarbamoyl)amino)-N-3-isoxazolyl-3-pyridinesulfonamide]
3020 nM	CNC(=O)N(c1ccc(S(=O)(=O)Nc2ccon2)cn1)c1cc(Cl)c(C2CC2)cc1OC [Example 1-59, 6-((5-chloro-4-cyclopropyl-2-methoxyphenyl)(methylcarbamoyl)amino)-N-3-isoxazolyl-3-pyridinesulfonamide]
16 nM	CNC(=O)N(c1ccc(S(=O)(=O)Nc2ccon2)cn1)c1cc(Cl)c(-c2cccc(C(F)(F)F)c2)cc1OC [Example 1-31, 6-((2-chloro-5-methoxy-3′-(trifluoromethyl)-4-biphenylyl)(methylcarbamoyl)amino)-N-3-isoxazolyl-3-pyridinesulfonamide]
14 nM	CNC(=O)N(c1ccc(S(=O)(=O)Nc2ccon2)cn1)c1cc(Cl)c(-c2cc(Cl)cc(OC)c2)cc1OC [Example 1-32, 6-((2,3′-dichloro-5,5′-dimethoxy-4-biphenylyl)(methylcarbamoyl)amino)-N-3-isoxazolyl-3-pyridinesulfonamide]
31 nM	CNC(=O)N(c1ccc(S(=O)(=O)Nc2ccon2)cn1)c1cc(Cl)c(-c2cc(F)c(F)c(F)c2)cc1OC [Example 1-52, 6-((2-chloro-3′,4′,5′-trifluoro-5-methoxy-4-biphenylyl)(methylcarbamoyl)amino)-N-3-isoxazolyl-3-pyridinesulfonamide]
37 nM	CNC(=O)N(c1ccc(S(=O)(=O)Nc2ccon2)cn1)c1cc(F)c(-c2ccc(F)c(Cl)c2)cc1OC [Example 1-21, 6-((3′-chloro-2,4′-difluoro-5-methoxy-4-biphenylyl)(methylcarbamoyl)amino)-N-3-isoxazolyl-3-pyridinesulfonamide]
57 nM	CNC(=O)N(c1ccc(S(=O)(=O)Nc2ccon2)cn1)c1cc(F)c(-c2ccc(Cl)c(C)c2)cc1OC [Example 1-1, 6-((4′-chloro-2-fluoro-5-methoxy-3′-methyl-4-biphenylyl)(methylcarbamoyl)amino)-N-3-isoxazolyl-3-pyridinesulfonamide]
9 nM	CNC(=O)N(c1ccc(S(=O)(=O)Nc2ccon2)cn1)c1cc(F)c(-c2ccc(Cl)c(Cl)c2)cc1OC [Example 1-10, 6-((3′,4′-dichloro-2-fluoro-5-methoxy-4-biphenylyl)(methylcarbamoyl)amino)-N-3-isoxazolyl-3-pyridinesulfonamide]
131 nM	CNC(=O)N(c1ccc(S(=O)(=O)Nc2ccon2)cn1)c1cc(Cl)c(-c2ccnc(C(F)(F)F)c2)cc1OC [Example 1-43, 6-((5-chloro-2-methoxy-4-(2-(trifluoromethyl)-4-pyridinyl)phenyl)(methylcarbamoyl)amino)-N-3-isoxazolyl-3-pyridinesulfonamide]
54 nM	CNC(=O)N(c1ccc(S(=O)(=O)Nc2ccon2)cn1)c1cc(Cl)c(-c2ccc(F)c(F)c2)cc1OC [Example 1-65, 6-((2-chloro-3′,4′-difluoro-5-methoxy-4-biphenylyl)(methylcarbamoyl)amino)-N-3-isoxazolyl-3-pyridinesulfonamide]
